For 17 compounds, T/C results are on record in PubChem BioAssay AID264 (DTP/NCI, 2004).

In the assay the test system is nude mice, LX-1 lung xenograft intrarenal, tumor weight T/C. Description: NCI In Vivo Anticancer Drug Screen. Data for tumor model Human Lung LX-1 Xenograft (intrarenal inoculation) in NU/NU Swiss (nude) mice. The following applies: endpoint: mean tumor weight change, higher = larger tumour. The method, boiled down: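 Compound-treated mice carrying transplanted tumors were compared with vehicle-treated controls. Tumor size was the measured end point, and the value is the treated-group measurement divided by the control-group measurement (T/C).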
In general terms: In xenograft studies the graft and the host belong to different species.

Setting [1] is: dose: 200.0 mg/kg/injection, schedule: Q01DX010 (sc), vehicle: Klucel (hydroxypropylcellulose) (HPC).
Where [2] appears, read: dose: 300.0 mg/kg/injection, schedule: Q04DX003 (sc), vehicle: Klucel (hydroxypropylcellulose) (HPC).
Where [3] appears, read: dose: 600.0 mg/kg/injection, schedule: Q04DX003 (sc), vehicle: Klucel (hydroxypropylcellulose) (HPC).
Where [4] appears, read: dose: 1200.0 mg/kg/injection, schedule: Q04DX003 (sc), vehicle: Klucel (hydroxypropylcellulose) (HPC).
Where [5] appears, read: dose: 25.0 mg/kg/injection, schedule: Q04DX003 (sc), vehicle: Klucel (hydroxypropylcellulose) (HPC).
[6] abbreviates: dose: 50.0 mg/kg/injection, schedule: Q04DX003 (sc), vehicle: Klucel (hydroxypropylcellulose) (HPC).

Values joined by “and” are separate entries in the source; they are usually repeats but may differ in a detail not shown here. Identical values can stand only once. Records with an inconclusive call do not appear.

In the case of `COc1c(CNC(=O)CCl)cc2[nH]c(C)cc2c1CNC(=O)CCl`, the T/C reads like this: (dose: 100.0 mg/kg/injection, schedule: Q01DX010 (sc), vehicle: Klucel (hydroxypropylcellulose) (HPC)) 76 % of control; under setting [1], 52 % of control; under setting [2], 91 % of control; (dose: 400.0 mg/kg/injection, schedule: Q01DX010 (sc), vehicle: Klucel (hydroxypropylcellulose) (HPC)) 37 % of control; under setting [3], 90 % of control; under setting [4], 68 % of control.

As to `CC(=O)Oc1ccccc1O`, the T/C is, setting by setting: (dose: 150.0 mg/kg/injection, schedule: Q04DX003 (sc), vehicle: saline + Tween-80 + alcohol) 105 % of control; (dose: 300.0 mg/kg/injection, schedule: Q04DX003 (sc), vehicle: saline + Tween-80 + alcohol) 101 % of control; (dose: 600.0 mg/kg/injection, schedule: Q04DX003 (sc), vehicle: saline + Tween-80 + alcohol) 89 % of control; (dose: 1200.0 mg/kg/injection, schedule: Q04DX003 (sc), vehicle: saline + Tween-80 + alcohol) 82 % of control.

In the case of `COC1CC(C)C(OC)c2cc(O)cc(c2O)NC(=O)/C(C)=C/C=C\C(C)C(OC(N)=O)/C(C)=C\C(C)C1OC` (stereo unspecified), the T/C (dose: 25.0 mg/kg/injection, schedule: Q04DX003 (sc), vehicle: saline + alcohol) was 86 % of control; the T/C (dose: 50.0 mg/kg/injection, schedule: Q04DX003 (sc), vehicle: saline + alcohol) was 93 % of control; the T/C (dose: 100.0 mg/kg/injection, schedule: Q04DX003 (sc), vehicle: saline + alcohol) is 82 % of control.

As to `COC(=O)NC1C(C)OC(OC2C/C=C(/C)C3C=CC4C(OC5CC(OC6CCC(OC7CC(O)C(OC8CCC(O)C(C)O8)C(C)O7)C(C)O6)C(OC(C)=O)C(C)O5)C(C)CC(C)C4C3(C)/C(O)=C3/C(=O)OC4(CC(C=O)=CC(O)C4/C=C\2C)C3=O)CC1(C)[N+](=O)[O-]` (stereo unspecified), the T/C by setting is: (dose: 12.5 mg/kg/injection, schedule: Q04DX003 (sc), vehicle: other) 63 % of control; (dose: 25.0 mg/kg/injection, schedule: Q04DX003 (sc), vehicle: other) 75 % of control; (dose: 50.0 mg/kg/injection, schedule: Q04DX003 (sc), vehicle: other) 100 % of control; (dose: 100.0 mg/kg/injection, schedule: Q04DX003 (sc), vehicle: other) 93 % of control.

Take `COc1ccc(CC2C(=O)NC(C)C(=O)N(C)C3Cc4ccc(cc4)Oc4cc(ccc4O)CC(C(=O)NC(C)C(=O)NC(C)C(=O)N2C)N(C)C3=O)cc1` (stereo unspecified): the T/C is, setting by setting: (dose: 4.0 mg/kg/injection, schedule: Q04DX003 (sc), vehicle: saline with Tween-80) 61 % of control; (dose: 8.0 mg/kg/injection, schedule: Q04DX003 (sc), vehicle: saline with Tween-80) 25 % of control; (dose: 16.0 mg/kg/injection, schedule: Q04DX003 (sc), vehicle: saline with Tween-80) 34 % of control; (dose: 32.0 mg/kg/injection, schedule: Q04DX003 (sc), vehicle: saline with Tween-80) 27 % of control.

`CCC1=C[C@H]2CN(CCc3c([nH]c4ccccc34)[C@@](C(=O)OC)(c3cc4c(cc3OC)N(C)[C@H]3[C@@](O)(C(=O)OC)[C@H](OC(C)=O)[C@]5(CC)C=CCN6CC[C@]43[C@@H]65)C2)C1`: the T/C is, setting by setting: (dose: 6.0 mg/kg/injection, schedule: Q04DX003 (sc), vehicle: water) 106 % of control; (dose: 12.0 mg/kg/injection, schedule: Q04DX003 (sc), vehicle: water) 89 % of control.

In the case of `O=C(O)c1cc(Cc2ccc(O)c(C(=O)O)c2)ccc1O` (tested in a mixture with another compound), the T/C was 89 % of control under setting [2]; 64 % of control under setting [3]; 91 % of control under setting [4]; 68 % of control (dose: 2400.0 mg/kg/injection, schedule: Q04DX003 (sc), vehicle: Klucel (hydroxypropylcellulose) (HPC)).

For `C(CC1CO1)C1CO1` (stereo unspecified), the T/C by setting is: (dose: 25.0 mg/kg/injection, schedule: Q01DX010 (sc), vehicle: saline) 104 % of control; (dose: 50.0 mg/kg/injection, schedule: Q01DX010 (sc), vehicle: saline) 64 % of control; (dose: 100.0 mg/kg/injection, schedule: Q01DX010 (sc), vehicle: saline) 42 % of control.

`CC(C)NC(=O)OCc1c(COC(=O)NC(C)C)c(-c2ccc(Cl)c(Cl)c2)n2c1CCC2`: the T/C was 27 % of control (dose: 25.0 mg/kg/injection, schedule: Q01DX010 (sc), vehicle: distilled water + Tween-80); 68 % of control (dose: 200.0 mg/kg/injection, schedule: Q04DX003 (sc), vehicle: distilled water + Tween-80); 50 % of control (dose: 400.0 mg/kg/injection, schedule: Q04DX003 (sc), vehicle: distilled water + Tween-80); 40 % of control (dose: 800.0 mg/kg/injection, schedule: Q04DX003 (sc), vehicle: distilled water + Tween-80); 90 % of control (dose: 1600.0 mg/kg/injection, schedule: Q04DX003 (sc), vehicle: distilled water + Tween-80).

In the case of `CC1(C)CC23C4COC(=O)C2CCC1C3CC4=O` (stereo unspecified), the T/C is 88 % of control (dose: 150.0 mg/kg/injection, schedule: Q04DX003 (sc), vehicle: DMSO); 51 % of control (dose: 300.0 mg/kg/injection, schedule: Q04DX003 (sc), vehicle: DMSO); 67 % of control (dose: 600.0 mg/kg/injection, schedule: Q04DX003 (sc), vehicle: DMSO); 63 % of control (dose: 1200.0 mg/kg/injection, schedule: Q04DX003 (sc), vehicle: DMSO).

On to `CC(C)[NH-].CC(C)[NH-].O.O.[Cl][Pt+2][Cl]`, for which the T/C runs as follows: (dose: 3.12 mg/kg/injection, schedule: Q01DX010 (sc), vehicle: dextrose) 62 % of control; (dose: 6.25 mg/kg/injection, schedule: Q01DX010 (sc), vehicle: dextrose) 60 % of control; (dose: 12.5 mg/kg/injection, schedule: Q01DX010 (sc), vehicle: dextrose) 53 % of control; (dose: 25.0 mg/kg/injection, schedule: Q01DX010 (sc), vehicle: dextrose) 64 % of control.

Regarding `Oc1cc2c3c(c1)c1cc4c(cc1c[n+]3CC2)OCO4`, the T/C reads like this: (dose: 25.0 mg/kg/injection, schedule: Q04DX003 (sc), vehicle: water) 102 % of control; (dose: 50.0 mg/kg/injection, schedule: Q04DX003 (sc), vehicle: water) 124 % of control; (dose: 100.0 mg/kg/injection, schedule: Q04DX003 (sc), vehicle: water) 93 % of control; (dose: 200.0 mg/kg/injection, schedule: Q04DX003 (sc), vehicle: water) 103 % of control.

As to `CC(=O)OCc1cc(=O)n(C)c2c3c4c(cc12)c(C)cc(=O)n4CO3`, the T/C was 113 % of control (dose: 25.0 mg/kg/injection, schedule: Q01DX010 (sc), vehicle: Klucel (hydroxypropylcellulose) (HPC)); 83 % of control and 222 % of control (dose: 50.0 mg/kg/injection, schedule: Q01DX010 (sc), vehicle: Klucel (hydroxypropylcellulose) (HPC)); 93 % of control and 105 % of control under setting [1].

Consider `CC(=O)OCC(=O)[C@@]12OC(C)(C)O[C@@H]1C[C@H]1[C@@H]3CC(C=O)=C4C=C(OCCCl)CC[C@]4(C)[C@@]3(F)[C@@H](O)C[C@@]12C`, for which the T/C under setting [5] was 79 % of control and the T/C under setting [6] was 72 % of control.

For the compound `CCOC(=O)C(CC(C)C)NC(=O)C(N)Cc1ccc(N(CCCl)CCCl)cc1` (stereo unspecified), the T/C runs as follows: (dose: 15.0 mg/kg/injection, schedule: Q04DX003 (sc), vehicle: water) 72 % of control; (dose: 30.0 mg/kg/injection, schedule: Q04DX003 (sc), vehicle: water) 55 % of control.

In the case of `CC(=O)OC(C)C1C2=C(C(=O)CC1(C)O)C(=O)c1c(ccc(-c3ccc4c(c3O)C(=O)C3=C(C4=O)C(C(C)OC(C)=O)C(C)(O)CC3=O)c1O)C2=O` (stereo unspecified), the T/C by setting is: (dose: 3.75 mg/kg/injection, schedule: Q04DX003 (sc), vehicle: saline with Tween-80) 45 % of control; (dose: 7.5 mg/kg/injection, schedule: Q04DX003 (sc), vehicle: saline with Tween-80) 86 % of control; (dose: 15.0 mg/kg/injection, schedule: Q04DX003 (sc), vehicle: saline with Tween-80) 87 % of control; (dose: 30.0 mg/kg/injection, schedule: Q04DX003 (sc), vehicle: saline with Tween-80) 62 % of control and 78 % of control.

For `COc1ccc(Cl)[n+]([O-])n1`, the T/C is 83 % of control under setting [5]; 60 % of control under setting [6]; 80 % of control (dose: 100.0 mg/kg/injection, schedule: Q04DX003 (sc), vehicle: Klucel (hydroxypropylcellulose) (HPC)).
